Source: PubChem BioAssay AID274 (DTP/NCI, 2004)
Where “and” joins values, the source holds several entries; their conditions need not be identical. Identical values can stand only once. Inconclusive results and toxic doses are left out. Rule for the calls: active = survival T/C of 150% or more; inactive = T/C below 125% in these data.

System: BDF1 mice, Lewis lung carcinoma iv, survival T/C
Assay: NCI In Vivo Anticancer Drug Screen. Data for tumor model Lewis Lung Carcinoma (intravenous) in B6D2F1 (BDF1) mice
Conditions: endpoint: median survival time, schedule: Q01DX009 (ip), higher = longer survival
Protocol: The antitumor activity of compounds was measured in mice bearing transplantable tumors. Survival or tumor size were measured and the results are expressed as the measurement made in the treated group (T) divided by the measurement made in the vehicle treated control group (C). The tumor model used in this assay is Lewis Lung Carcinoma (intravenous) in B6D2F1 (BDF1) mice

Measured: T/C

Cc1ncc([N+](=O)[O-])n1CCO
inactive: dose: 18.75 mg/kg/injection, vehicle: Klucel (hydroxypropylcellulose) (HPC) 93 % of control | dose: 37.5 mg/kg/injection, vehicle: Klucel (hydroxypropylcellulose) (HPC) 100 % of control | dose: 75.0 mg/kg/injection, vehicle: Klucel (hydroxypropylcellulose) (HPC) 95 % of control | dose: 150.0 mg/kg/injection, vehicle: Klucel (hydroxypropylcellulose) (HPC) 100 % of control | dose: 300.0 mg/kg/injection, vehicle: Klucel (hydroxypropylcellulose) (HPC) 91 % of control | dose: 600.0 mg/kg/injection, vehicle: Klucel (hydroxypropylcellulose) (HPC) 102 % of control

OC(C1CO1)C(O)C1CO1 (centres undefined)
inactive: dose: 0.25 mg/kg/injection, vehicle: saline 93 % of control | dose: 0.5 mg/kg/injection, vehicle: saline 94 % of control and 107 % of control | dose: 1.0 mg/kg/injection, vehicle: saline 100 % of control and 113 % of control | dose: 2.0 mg/kg/injection, vehicle: saline 95 % of control | dose: 4.0 mg/kg/injection, vehicle: saline 121 % of control

CSc1ccc2c(c1)C(N1CCN(C)CC1)Cc1ccccc1S2 (centres undefined)
inactive: dose: 1.56 mg/kg/injection, vehicle: saline with Tween-80 102 % of control

CC(=O)OCc1ncccc1OC(C)=O
inactive: dose: 25.0 mg/kg/injection, vehicle: saline 97 % of control | dose: 50.0 mg/kg/injection, vehicle: saline 100 % of control | dose: 100.0 mg/kg/injection, vehicle: saline 101 % of control | dose: 200.0 mg/kg/injection, vehicle: saline 104 % of control

CCCCCC(O)C1C(=O)OC(C)C(O)/C=C/C=C/C=C/C=C\C=C(\C)C(O)CC(O)CC(O)CC(O)CC(O)CC(O)CC1O (centres undefined)
inactive: dose: 3.12 mg/kg/injection, vehicle: distilled water + alcohol 103 % of control | dose: 6.25 mg/kg/injection, vehicle: distilled water + alcohol 96 % of control | dose: 12.5 mg/kg/injection, vehicle: distilled water + alcohol 106 % of control | dose: 25.0 mg/kg/injection, vehicle: distilled water + alcohol 96 % of control

NNC(=S)N/N=C/c1ccccn1
inactive: dose: 1.56 mg/kg/injection, vehicle: saline 98 % of control | dose: 3.12 mg/kg/injection, vehicle: saline 102 % of control | dose: 6.25 mg/kg/injection, vehicle: saline 107 % of control | dose: 12.5 mg/kg/injection, vehicle: saline 114 % of control
